Data set [1] deals with α-tubulin K40 and histone H3 acetylation. Kind of data set: Acetylation of SIRT2 substrates in wild type primary cortical neurons. The data set is classed as cell-based, mouse. The procedure: To assess protein levels, cell extracts were prepared from cells washed with PBS and lysed with buffer containing 2% SDS, Complete EDTA-free Protease Inhibitor Cocktail (Roche) and 1 mM phenylmethylsulfonyl fluoride. To prepare brain extracts for analysis, frozen mouse cortical tissues were homogenized in PBS containing protease inhibitors with an Kontes Pellet Pestle (Kimble/Kontes). They were later sonicated and lysed overnight at 4° C. in 2× volume of lysis buffer containing 2% SDS and protease inhibitors. Protein concentrations in ST14A cell extracts and homogenized cortical tissues were evaluated using a BCA analysis kit and normalized. Samples were prepared in a SDS buffer containing DTT and separated on bis-acrylamide protein gels via electrophoresis and transferred onto a 0.2 μm PVDF membrane). Membranes were probed for NQO1 (Sigma N5288, 1:1,000), GCLM, (Abcam ab126704, 1:800), SIRT2 (Sigma S8447, 1:2,500), histone H3 (Cell Signaling 4499, 1:2,000), acetylated H3 (K56) (Millipore 04-1135, 1:500), TNFα (Abcam ab1793, 1:1,500), GADPH (Millipore MAB374, 1:10,000), actin (Sigma A2066, 1:1250), α-tubulin (Sigma T6074, 1:20,000), and acetylated α-tubulin (Sigma T6793, 1:2,500) overnight in 5% milk in PBST at 4° C. on a rocker. Membranes were thrice washed in PBST for 15 min on a shaker and incubated in either an anti-rabbit-HRP (Bio-Rad 170-5046, 1:10,000) or anti-mouse-HRP (Sigma A3682, 1:4,000) secondary solution as appropriate in 3% milk in PBST for 1 hr at room temperature on a rocker. After four washes of 15 min in PBST on a shaker, blots were visualized using SuperSignal West Pico Chemiluminescent Substrate (Pierce 34080) or SuperSignal West Dura Extended Duration Substrate (Thermo 34075) and exposed on Scientific Imaging Film (Kodak 864 6770).
Based upon the robust neuroprotection observed in HD model systems expressing both mutant HTT fragments and full-length mutant HTT, verification of the bioactivity of MIND4 as SIRT2 inhibitor in primary neurons was sought. […]

Data set [2] relates to primary human monocytes. Kind of data set: LDH cell death assay in primary human monocytes. Format: cell-based. Conditions: any concentration. The method, then: (§1) Blood samples were obtained from control subjects and genetically-diagnosed, symptomatic HD patients. Patients were classed as having early or moderate-stage disease using the total functional capacity (TFC) scale (13-7, early; 6-3, moderate) [Marder, 2000]. Subjects with inflammatory or infective conditions were excluded. Cells were isolated from whole blood, as previously described [Björkqvist, 2008]. In brief, 50 ml whole blood was collected in heparin (CP Pharmaceuticals) and leukocytes were isolated by density gradient centrifugation. Monocytes were sorted via magnetic cell separation columns using anti-CD14 microbeads (Miltenyi Biotec). Monocytes were seeded at 1×10^5 cells per well in 96-well PRIMARIA™ tissue culture plates (BD Falcon) with R10 media (RPMI culture medium supplemented with 10% FCS, 2 mM L-glutamine, 50 U/ml penicillin and […] streptomycin (Invitrogen)). […] Supernatants were analyzed using the human pro-inflammatory II (4-plex) MSD assay measuring IL-1b, IL-6, IL-8 and TNFα. […] Cell death was measured using a LDH assay (CytoTox-Fluor™ Cytotoxicity Assay from Promega). Normalized cytokine levels have been analyzed on the logarithmic scale due to their skewed distribution. […] Contrasts of interest were then calculated using linear combinations of parameter estimates.

In data set [3] the test system is primary human monocytes. Kind of data set: Cytokine production by primary monocytes from HD patients and controls. The data set is classed as cell-based. More on the design: Levels of IL-1, IL-6, IL-8 and TNFα: dose or concentration left out as unconfirmed. The procedure: as §1
For data set [4], the system named is ARE genes Nqo1, Hmox1, Gclc. Kind of data set: qPCR of ARE target genes in corticostriatal co-cultures. Format: cell-based, mouse. The conditions noted are these: 6 hr. The method, then: Primary corticostriatal neuronal co-cultures were prepared from E18 mouse brains as previously described [Kaltenbach, 2010]. Mice were maintained in accordance with Duke University Medical Center Institutional Animal Care and Use Committee guidelines. For 5×-ARE-luciferase reporter assays, neurons were transfected following their isolation (Nucleofector, Lonza) with 2.5 μg Cignal Antioxidant Response Reporter dual luciferase plasmids (Qiagen/SABiosciences) and plated onto pre-established glial beds in 96 well plates. After 4 days in culture at 37° C. under 5% CO2, co-cultures were treated with the indicated compounds for 4 hr or 16 hr then harvested and read for luminescence from firefly and Renilla luciferases according to the Dual Glo luciferase protocol (Promega) using a SpectraMaxL luminometer (Molecular Devices). Each sample was measured in technical triplicate. For quantitative RT-PCR (qPCR) of ARE target genes, corticostriatal co-cultures were prepared as described above and, after 4 days in culture, treated for 6 hr with the indicated compounds followed by RNA harvesting according to the Absolutely RNA miniprep protocol (Agilent Technologies). Purified RNA was converted to cDNA using random hexamers and SuperScript First-Strand RT-PCR Synthesis (Invitrogen). […] Ct values were determined using primer sets against ARE genes Hmox1, Gclc and Nqo1]. […]
(In general: Quantitative PCR measures a nucleic acid by following its amplification.)

Turning to `O=[N+]([O-])c1ccc(Sc2nnc(COc3ccccc3)n2-c2ccccc2)c2ncccc12` [MIND4, 5-nitro-8-{[5-(phenoxymethyl)-4-phenyl-4H-1,2,4-triazol-3-yl]thio}quinoline], the “Acetylation of histone 3 K56 and K27” value in data set [1] (primary neurons, 6 hr) is “increased acetylation of histone 3 K56 and K27”. Moreover, the “Acetylation of α-tubulin and Histone 3 K56” value in data set [1] (wild type primary cortical neurons (DIV11), 6 hours) is on record as “only subtle increases of acetylation”.
In the case of `O=[N+]([O-])c1ccc(Sc2nnc(COc3ccccc3)n2-c2ccccc2)nc1` [MIND4-17], the “Toxic effect on viability of primary human monocytes” value in the data set with primary human monocytes [2] is recorded as “Neither vehicle (DMSO) or MIND4-17 had a toxic effect”. Moreover, the “Levels of IL-1, IL-6, IL-8 and TNFα” value with primary human monocytes [3] (HD patient cells) is on record as “significant decrease in the levels of all four cytokines”. In addition, the “IL-1, IL-6, IL-8 and TNFα production” value in the data set on primary human monocytes [3] (monocytes from HD patients and normal subjects, LPS and IFN-g stimulation, different doses) was “reduced IL-1, IL-6, IL-8, and TNFα production”. In addition, in data set [4], the “Expression of ARE genes Nqo1, Hmox1” value is given as “increased the expression of the canonical ARE genes Nqo1, Hmox1” and the “Expression of Gcic” value is around 2 fold.
